The test system of this data set is female CD1 mice. In words: Indomethacin-induced mortality in mice (model dose). In kind it is in vivo. Particulars: indomethacin 7 mg/kg s.c. bid for two days following overnight fasting; 7-8 week old female CD1 mice; saline-treated control animals. As for the experimental part: Indomethacin(1-[p-chlorobenzoyl]-5-methoxy-2-methylindole-3-acetic acic) (Sigma Chemical Co., St Louis MO, lot 74H1212), stock solution was prepared and aliquoted 1 hr before the first injection. The mice were weighed, and then fasted overnight, and given food one hour prior to the first indomethacin injection. Mice were not fasted for the second indomethacin injection. Indomethacin (14.5 mg) was weighed out using a Mettler AE166 scale and dissolved in 1 mL anhydrous ethyl alcohol. The solution was warmed at 37° C for 5 minutes and thoroughly vortexed every minute until fully dissolved. 998.1 uL of stock indomethacin solution was diluted in 41 ml 5% NaHCO3 pH 7.3. […] Indomethacin used in the second injection was stored at -20° C overnight and allowed to thaw at room temperature prior to injection. Mice were injected at the same time (10:00 AM) on both days approximately 1 hr after receiving h[Gly^2]-GLP-2. Animals not receiving indomethacin were administered vehicle alone (250 µl anhydrous ethyl alcohol in 10.5 mL NaHCO3 pH 7.3 - a final injection volume of 0.5 ml was given daily over 2 days). Animals were sacrificed in a CO2 chamber 14 days following the administration of either PBS or h[Gly^2]-GLP-2.
Pilot experiments were performed to determine an indomethacin dose that reproducibly produced ∼ 50% mortality in mice. […]

As for `COc1ccc2c(c1)c(CC(=O)O)c(C)n2C(=O)c1ccc(Cl)cc1` [indomethacin, 1-[p-chlorobenzoyl]-5-methoxy-2-methylindole-3-acetic acic], the mortality – broadly, the percentage killed – is listed as 50%.
